From patent US9181219B2, “Compounds of modulating TRPV3 function” (Hydra Biosciences, Inc., priority 2006, dated 2015)
Where two headings read alike, the source gives them in different places.

Tests used:
Assay type in all cases: cell-based
TRPV3 = TRPV3 (Homo sapiens (Human), UniProt Q8NET8); assay: Whole-cell patch clamp of TRPV3 mediated inward current; details: HEK293/TREx TRPV3 cells, approximate values
From the text: Whole-cell patch clamp experiments permit the detection of currents through the TRPV3 channel in the cell line described above. A glass electrode is brought into contact with a single cell and the membrane is then ruptured, permitting control of the voltage of the cell membrane and measurement of currents flowing across the membrane using the amplifier attached to the electrode. A perfusion system permits control of the extracellular solution, including the addition of blockers and activators of the current. The current can be activated by heating this solution to 28° C. or warmer or by addition of 20 μM 2-APB to the solution.
TRPV3 cells were induced 20-48 hours, removed from growth plates, and replated at low density (to attain good single-cell physical separation) on glass coverslips for measurement. In some cases, cells were grown in low density overnight on glass coverslips. Patch clamp recordings were made in the whole-cell mode with a holding potential of −40 mV. Every 5 seconds, a voltage ramp was applied from −120 to +100 mV, 400 ms in duration. Currents elicited were quantified at −80 mV and +80 mV. The internal solution consisted of 140 mM cesium aspartate, 10 mM EGTA, 2.27 mM MgCl2, 1.91 mM CaCl2 and 10 mM HEPES, pH to 7.2 with KOH; with 50 nM calculated free Ca^2+. External solution was Ringer's solution described above. Upon addition of 2-APB or upon heating of the extraceullar solution as described above, TRPV3 current was induced only in TRPV3-expressing cells and not in parental HEK293 TREx cells. […] Removal of the stimulus caused most of the current to go away, and inhibitor addition could still inhibit this current.
The data includes approximate IC50 values for inhibition of TRPV3 mediated inward current as assessed by patch-clamp.

NaV1.2 = NaV1.2 (Homo sapiens (Human), UniProt Q99250); assay: Qpatch selectivity, NaV1.2 inward current; details: tested at concentrations up to 30 μM, IC50 estimated
From the text: (§1) To determine whether compounds were selective for TRPV3 inhibition over inhibition of other ion channel types, the human ERG (hERG), NaV1.2, and TRPV1 (hTRPV1) channels and the rat TRPV6 (rTRPV6) channel were also stably transfected and expressed or induced to express in mammalian cell lines. The methods for measuring currents from these channels are well-established and have been described in numerous publications (See, Weerapura et al., 2002, J Physiology 540: 15-27; Rush et al., 2005, J Physiology 564: 808-815; Caterina et al., 1997, Nature 389: 816-824; Hoenderhop et al., 2001, J Physiology 537: 747-761; Clapham et al., 2003, Pharmacol Rev 55: 591-596). Compounds of interest were tested against these channels at concentrations up to 30 μM, and the resulting data were used to estimate IC50.

TRPV1 (hTRPV1) = TRPV1 (hTRPV1) (Homo sapiens (Human), UniProt Q8NER1); assay: Patch clamp selectivity, TRPV1 inward current; details: tested at concentrations up to 30 μM, IC50 estimated
From the text: as §1

hERG = hERG (Homo sapiens (Human), UniProt Q12809); assay: Patch clamp selectivity, hERG current; details: tested at concentrations up to 30 μM, IC50 estimated
From the text: as §1

[1] = Phase 1 inward current, read-out: TRPV3 Phase 1 IC50 inward
[2] = Phase 2 inward current, read-out: TRPV3 Phase 2 IC50 inward

Chain of NaV1.2 (Q99250 whole entry): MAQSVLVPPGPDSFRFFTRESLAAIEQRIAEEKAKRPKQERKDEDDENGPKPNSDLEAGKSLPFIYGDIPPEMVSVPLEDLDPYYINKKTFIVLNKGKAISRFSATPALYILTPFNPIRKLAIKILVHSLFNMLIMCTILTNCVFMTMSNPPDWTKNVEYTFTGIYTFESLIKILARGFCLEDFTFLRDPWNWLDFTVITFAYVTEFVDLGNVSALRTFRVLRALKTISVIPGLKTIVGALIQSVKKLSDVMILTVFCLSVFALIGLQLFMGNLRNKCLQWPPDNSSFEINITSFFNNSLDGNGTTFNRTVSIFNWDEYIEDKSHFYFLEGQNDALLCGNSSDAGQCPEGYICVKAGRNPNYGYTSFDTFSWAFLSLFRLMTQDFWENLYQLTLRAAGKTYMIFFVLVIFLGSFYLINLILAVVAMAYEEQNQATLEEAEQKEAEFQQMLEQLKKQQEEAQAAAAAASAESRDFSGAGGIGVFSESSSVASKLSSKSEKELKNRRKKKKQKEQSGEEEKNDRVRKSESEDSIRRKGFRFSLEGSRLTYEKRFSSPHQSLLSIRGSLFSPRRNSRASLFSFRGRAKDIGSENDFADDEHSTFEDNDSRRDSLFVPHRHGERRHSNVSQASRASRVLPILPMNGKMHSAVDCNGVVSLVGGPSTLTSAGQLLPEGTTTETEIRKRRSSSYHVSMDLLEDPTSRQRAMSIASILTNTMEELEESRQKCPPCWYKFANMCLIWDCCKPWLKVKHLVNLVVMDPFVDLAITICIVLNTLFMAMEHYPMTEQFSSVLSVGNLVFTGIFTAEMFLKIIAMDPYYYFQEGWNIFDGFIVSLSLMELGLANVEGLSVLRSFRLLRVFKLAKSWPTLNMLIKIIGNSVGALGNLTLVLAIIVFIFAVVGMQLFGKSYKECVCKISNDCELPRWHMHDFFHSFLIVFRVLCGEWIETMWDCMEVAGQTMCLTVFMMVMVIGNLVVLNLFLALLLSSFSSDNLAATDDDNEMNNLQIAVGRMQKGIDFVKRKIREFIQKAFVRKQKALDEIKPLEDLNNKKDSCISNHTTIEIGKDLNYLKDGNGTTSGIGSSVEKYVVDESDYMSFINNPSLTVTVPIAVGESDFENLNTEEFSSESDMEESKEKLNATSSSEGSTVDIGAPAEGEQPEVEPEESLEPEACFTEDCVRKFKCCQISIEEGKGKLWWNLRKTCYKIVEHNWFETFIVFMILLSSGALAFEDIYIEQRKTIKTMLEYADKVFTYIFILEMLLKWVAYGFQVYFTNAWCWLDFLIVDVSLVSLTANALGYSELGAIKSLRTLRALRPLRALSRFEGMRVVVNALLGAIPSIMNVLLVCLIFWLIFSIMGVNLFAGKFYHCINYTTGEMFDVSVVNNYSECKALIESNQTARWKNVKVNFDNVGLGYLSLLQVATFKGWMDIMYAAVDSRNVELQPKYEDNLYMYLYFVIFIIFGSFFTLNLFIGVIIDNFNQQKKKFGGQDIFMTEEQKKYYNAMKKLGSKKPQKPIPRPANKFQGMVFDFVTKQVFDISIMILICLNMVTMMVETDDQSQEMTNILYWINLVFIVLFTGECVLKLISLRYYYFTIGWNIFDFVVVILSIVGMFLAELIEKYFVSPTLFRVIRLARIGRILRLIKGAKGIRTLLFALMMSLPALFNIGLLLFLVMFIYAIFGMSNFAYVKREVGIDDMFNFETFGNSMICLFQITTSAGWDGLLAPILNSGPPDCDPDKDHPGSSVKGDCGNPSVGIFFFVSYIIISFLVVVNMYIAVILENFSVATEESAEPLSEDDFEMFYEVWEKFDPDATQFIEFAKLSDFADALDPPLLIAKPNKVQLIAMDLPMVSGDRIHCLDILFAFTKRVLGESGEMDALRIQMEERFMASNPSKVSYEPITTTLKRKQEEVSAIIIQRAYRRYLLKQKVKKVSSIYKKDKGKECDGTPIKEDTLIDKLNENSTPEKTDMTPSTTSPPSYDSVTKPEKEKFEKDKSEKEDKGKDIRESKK
Chain of TRPV3 (Q8NET8 whole entry, species assumed, the tested form may be a part): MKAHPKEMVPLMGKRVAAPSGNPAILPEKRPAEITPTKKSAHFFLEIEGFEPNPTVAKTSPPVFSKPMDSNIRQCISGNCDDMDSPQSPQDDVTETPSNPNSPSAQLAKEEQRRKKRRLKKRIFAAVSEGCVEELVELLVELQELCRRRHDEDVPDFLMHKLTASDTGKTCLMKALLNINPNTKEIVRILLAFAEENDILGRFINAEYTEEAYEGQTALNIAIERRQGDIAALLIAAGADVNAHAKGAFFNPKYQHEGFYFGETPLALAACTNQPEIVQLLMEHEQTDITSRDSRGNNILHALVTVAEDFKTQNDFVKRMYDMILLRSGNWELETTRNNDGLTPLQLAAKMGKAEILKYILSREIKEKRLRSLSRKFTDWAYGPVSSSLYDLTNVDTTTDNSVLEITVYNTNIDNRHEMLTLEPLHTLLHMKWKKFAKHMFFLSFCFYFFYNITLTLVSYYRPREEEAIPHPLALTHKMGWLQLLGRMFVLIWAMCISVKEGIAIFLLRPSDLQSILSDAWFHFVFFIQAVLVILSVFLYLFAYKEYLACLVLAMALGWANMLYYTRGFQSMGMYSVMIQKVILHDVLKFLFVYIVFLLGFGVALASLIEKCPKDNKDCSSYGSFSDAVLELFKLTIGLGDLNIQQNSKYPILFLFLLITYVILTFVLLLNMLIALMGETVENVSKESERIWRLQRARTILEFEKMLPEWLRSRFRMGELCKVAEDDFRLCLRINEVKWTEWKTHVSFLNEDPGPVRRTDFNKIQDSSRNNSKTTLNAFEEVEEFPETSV
Chain of hERG (Q12809 whole entry): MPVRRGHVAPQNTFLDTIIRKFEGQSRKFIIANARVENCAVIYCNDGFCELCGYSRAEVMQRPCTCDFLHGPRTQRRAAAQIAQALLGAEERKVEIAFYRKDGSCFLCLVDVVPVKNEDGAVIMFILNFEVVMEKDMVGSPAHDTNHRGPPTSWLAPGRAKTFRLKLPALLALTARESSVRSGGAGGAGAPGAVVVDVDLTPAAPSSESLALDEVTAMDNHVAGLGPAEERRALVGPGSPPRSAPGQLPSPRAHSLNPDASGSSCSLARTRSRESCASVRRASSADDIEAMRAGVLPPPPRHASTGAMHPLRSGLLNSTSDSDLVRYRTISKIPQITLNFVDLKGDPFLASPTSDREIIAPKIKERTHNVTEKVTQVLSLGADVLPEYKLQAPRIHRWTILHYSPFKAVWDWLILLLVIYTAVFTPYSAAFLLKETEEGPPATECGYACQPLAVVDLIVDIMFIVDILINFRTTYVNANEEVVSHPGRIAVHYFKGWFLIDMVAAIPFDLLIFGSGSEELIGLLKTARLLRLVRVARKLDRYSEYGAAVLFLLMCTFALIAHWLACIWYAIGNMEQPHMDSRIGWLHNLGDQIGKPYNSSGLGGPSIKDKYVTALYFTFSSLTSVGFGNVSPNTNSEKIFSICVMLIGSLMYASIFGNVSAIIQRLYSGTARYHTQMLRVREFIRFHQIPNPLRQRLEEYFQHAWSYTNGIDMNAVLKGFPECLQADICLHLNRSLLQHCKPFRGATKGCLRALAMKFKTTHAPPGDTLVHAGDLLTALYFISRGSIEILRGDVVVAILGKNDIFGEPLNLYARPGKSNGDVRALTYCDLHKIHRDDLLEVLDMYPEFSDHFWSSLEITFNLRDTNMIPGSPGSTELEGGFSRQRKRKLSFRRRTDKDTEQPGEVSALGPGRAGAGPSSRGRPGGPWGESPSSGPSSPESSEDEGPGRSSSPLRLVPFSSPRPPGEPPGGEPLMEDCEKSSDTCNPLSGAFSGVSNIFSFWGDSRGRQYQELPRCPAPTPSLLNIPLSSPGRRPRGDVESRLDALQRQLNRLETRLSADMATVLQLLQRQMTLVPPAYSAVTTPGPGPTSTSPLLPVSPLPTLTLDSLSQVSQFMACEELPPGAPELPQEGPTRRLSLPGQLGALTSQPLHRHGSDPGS
Chain of TRPV1 (hTRPV1) (Q8NER1 whole entry): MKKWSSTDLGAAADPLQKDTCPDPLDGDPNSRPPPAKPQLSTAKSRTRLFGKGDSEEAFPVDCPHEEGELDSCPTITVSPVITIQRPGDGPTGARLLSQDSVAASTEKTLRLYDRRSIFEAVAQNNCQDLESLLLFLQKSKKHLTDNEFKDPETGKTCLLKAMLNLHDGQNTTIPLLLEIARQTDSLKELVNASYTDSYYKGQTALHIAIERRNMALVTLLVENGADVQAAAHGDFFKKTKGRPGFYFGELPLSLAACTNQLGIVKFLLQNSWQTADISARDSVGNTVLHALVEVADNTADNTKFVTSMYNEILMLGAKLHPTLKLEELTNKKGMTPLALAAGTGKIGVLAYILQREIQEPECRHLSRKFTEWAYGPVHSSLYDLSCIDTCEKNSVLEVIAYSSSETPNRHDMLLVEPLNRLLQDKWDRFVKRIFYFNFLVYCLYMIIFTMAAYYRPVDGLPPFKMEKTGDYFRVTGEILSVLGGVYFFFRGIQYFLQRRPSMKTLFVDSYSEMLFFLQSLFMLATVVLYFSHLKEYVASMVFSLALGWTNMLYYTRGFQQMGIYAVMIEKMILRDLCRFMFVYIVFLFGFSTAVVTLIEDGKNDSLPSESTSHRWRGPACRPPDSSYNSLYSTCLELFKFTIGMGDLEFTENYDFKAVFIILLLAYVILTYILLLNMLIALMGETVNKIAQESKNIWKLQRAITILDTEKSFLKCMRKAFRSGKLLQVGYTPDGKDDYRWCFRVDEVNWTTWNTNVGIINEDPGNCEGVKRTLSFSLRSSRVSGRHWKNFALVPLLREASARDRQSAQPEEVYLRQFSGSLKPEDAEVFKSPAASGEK

IC50 (TRPV3; [1]) | IC50 (TRPV3; [2]) | IC50 (NaV1.2) | IC50 (TRPV1 (hTRPV1)) | Structure (SMILES) | IC50 (hERG)
≤ 5 µM | ≤ 1 µM | ≥ 30 µM | – | O=C(CSc1ccc(C(F)(F)F)cn1)N1CCCc2ccccc21 | –
≤ 10 µM | ≤ 5 µM | – | – | Cc1cccc2c1N(C(=O)CSc1ccc(C#N)cn1)CCC2 | –
≤ 0.2 µM | ≤ 0.2 µM | – | – | Cc1cccc2c1N(C(=O)CSc1ncc(C(F)(F)F)cc1F)CCC2 | –
≤ 0.5 µM | ≤ 0.5 µM | – | – | Cc1cccc2c1N(C(=O)CSc1ccc(Br)cn1)CCC2 | –
≤ 5 µM | ≤ 5 µM | – | – | COC(=O)c1cnc(SCC(=O)N2CCCc3cccc(C)c32)c(Cl)c1 | –
≤ 0.2 µM | ≤ 0.2 µM | – | – | Cc1cccc2c1N(C(=O)CSc1ncc(Cl)cc1Cl)CCC2 | –
≤ 10 µM | ≤ 10 µM | – | – | Cc1cccc2c1N(C(=O)CSc1cc(C#N)ccn1)CCC2 | –
≤ 1 µM | ≤ 0.5 µM | – | – | Cc1cccc2c1N(C(=O)CSc1ncccc1C#N)CCC2 | –
≤ 0.5 µM | ≤ 0.5 µM | – | – | COc1cccc2c1N(C(=O)CSc1ncccc1Cl)CCC2 | –
≤ 5 µM | ≤ 1 µM | – | – | Cc1ccnc(SCC(=O)N2CCCc3cccc(C)c32)c1C | –
≤ 0.2 µM | ≤ 0.2 µM | – | – | Cc1cnc(SCC(=O)N2CCCc3cccc(C)c32)cc1C | –
≤ 5 µM | ≤ 5 µM | – | – | CCc1cc(C(F)(F)F)cnc1SCC(=O)N1CCCc2cccc(C)c21 | –
≤ 0.5 µM | ≤ 0.2 µM | ≥ 30 µM | ≥ 20 µM | Cc1cccc2c1N(C(=O)CSc1ccc(C(F)(F)F)cn1)CCC2 [Compound 6, 2-(5-trifluoromethyl-pyridine-2-ylsulfanyl)-1-(8-methyl-3,4-dihydro-2H-quinolin-1-yl)-ethanone] | ≥ 30 µM
≤ 1 µM | ≤ 5 µM | – | – | Cc1cccc2c1N(C(=O)CSc1ncccc1C(F)(F)F)CCC2 [Compound 8, 1-(8-methyl-3,4-dihydro-2H-quinolin-1-yl)-2-(3-trifluoromethyl-pyridin-2-ylsulfanyl)-ethanone] | –
≤ 0.2 µM | ≤ 0.5 µM | – | – | Cc1cccc2c1N(C(=O)CSc1ncc(C(F)(F)F)cc1Cl)CCC2 [Compound 10, 2-(3-chloro-5-trifluoromethyl-pyridine-2-ylsulfanyl)-1-(8-methyl-3,4-dihydro-2H-quinolin-1-yl)-ethanone] | –
≤ 5 µM | ≤ 10 µM | – | – | Cc1cccc2c1N(C(=O)CSc1ccccn1)CCC2 [Compound 12, 1-(8-methyl-3,4-dihydro-2H-quinolin-1-yl)-2-(pyridine-2-ylsulfanyl)-ethanone] | –
≤ 0.5 µM | ≤ 0.5 µM | – | – | Cc1cccc2c1N(C(=O)CSc1ccc(Cl)cn1)CCC2 [Compound 16, 2-(5-Chloro-pyridin-2-ylsulfanyl)-1-(8-methyl-3,4-dihydro-2H-quinolin-1-yl)-ethanone] | ≥ 5 µM
≤ 0.2 µM | ≤ 1 µM | ≥ 30 µM | – | Cc1cccc2c1N(C(=O)CSc1ncccc1Cl)CCC2 [Compound 20, 2-(3-chloro-pyridin-2-ylsulfanyl)-1-(8-methyl-3,4-dihydro-2H-quinolin-1-yl)-ethanone] | ≥ 10 µM
≤ 5 µM | ≤ 5 µM | – | – | O=C(CSc1ccc(Cl)cn1)N1CCCc2ccccc21 [Compound 21, 2-(5-chloro-pyridine-2-ylthio)-1-(3,4-dihydroquinolin-1-(2H)-yl)-ethanone] | –
≤ 5 µM | ≤ 10 µM | – | – | Cc1ccc(SCC(=O)N2CCCc3cccc(C)c32)nc1 [Compound 24, 1-(8-Methyl-3,4-dihydro-2H-quinolin-1-yl)-2-(5-methyl-pyridin-2-ylsulfanyl)-ethanone] | –
